Experiment: molar heat capacity at constant pressure
Conditions: 101.33 kPa, Crystal, Small sample (50 mg) DSC

[Na+].[O]=[Re](=[O])(=[O])[O-] [sodium perrhenate]
Conditions | molar heat capacity at constant pressure [J/K/mol]
298.15 K | 118.8
323.15 K | 122.2
348.15 K | 125.5
373.15 K | 128.9
398.15 K | 131.8
423.15 K | 135.1
448.15 K | 137.2
473.15 K | 139.7
498.15 K | 142.3
523.15 K | 144.8
548.15 K | 146.9
573.15 K | 148.1
598.15 K | 149.4

Source: the NIST ThermoML archive (doi:10.1016/j.jct.2009.04.004)
